What all share (type): functional, cell-based
The subject of one assay is DLD-1. In words: Cytotoxicity against human DLD1 cells after 96 hrs by sulforhodamine B assay. For orientation: Sulforhodamine B stains cellular protein and so reports cell mass.
Assay [1] is described as follows: Cytotoxicity against human A253 cells after 96 hrs by sulforhodamine B assay.
Assay [2] in a line: Cytotoxicity against human Lipo cells after 96 hrs by sulforhodamine B assay.
Another assay relates to HCT-116. Description: Cytotoxicity against human HCT116 cells after 96 hrs by sulforhodamine B assay.
For a further assay, the system named is A549. Description: Cytotoxicity against human A549 cells after 96 hrs by sulforhodamine B assay.
The test system of assay [3] is A2780. In words: Induction of apoptosis in human A2780 cells assessed as DNA fragmentation at IC90 concentration after 24 hrs by gel electrophoresis analysis.
Assay [4] relates to A-431. In words: Induction of apoptosis in human A431 cells assessed as DNA fragmentation at IC90 concentration after 24 hrs by gel electrophoresis analysis.
The subject of another assay is HT-29. Description: Cytotoxicity against human HT-29 cells after 96 hrs by sulforhodamine B assay.
Assay [5] concerns A2780. Description: Induction of apoptosis in human A2780 cells at IC90 concentration after 24 hrs by trypan blue exclusion assay.
In another assay the test system is SW-1736. Description: Cytotoxicity against human SW1736 cells after 96 hrs by sulforhodamine B assay.
The test system of a further assay is MCF7. In words: Cytotoxicity against human MCF7 cells after 96 hrs by sulforhodamine B assay.
The next assay relates to 8505C. Description: Cytotoxicity against human 8505C cells after 96 hrs by sulforhodamine B assay.
In another assay the test system is FaDu. In words: Cytotoxicity against human FADU cells after 96 hrs by sulforhodamine B assay.
The nature of assay [6]: Cytotoxicity against human 518A2 cells after 96 hrs by sulforhodamine B assay.
Another assay has as its system SW480. In words: Cytotoxicity against human SW480 cells after 96 hrs by sulforhodamine B assay.
Assay [7] has as its system A-431. Description: Induction of apoptosis in human A431 cells at IC90 concentration after 24 hrs by trypan blue exclusion assay.
For another assay, the system named is HCT-8. Description: Cytotoxicity against human HCT8 cells after 96 hrs by sulforhodamine B assay.
Assay [8] has as its system A2780. Description: Cytotoxicity against human A2780 cells after 96 hrs by sulforhodamine B assay.

This passage reports IC50 and Activity results from ChEMBL document CHEMBL1629466, “Synthesis and biological activity of some antitumor active derivatives from glycyrrhetinic acid” (Eur J Med Chem, 2010).

SMILES strings stand for the structures. Activity calls are given as the source filed them. The rule behind the calls is not given here.

For `COC(=O)[C@@]1(C)CC[C@]2(C)CC[C@]3(C)C(=CC(=O)[C@@H]4[C@@]5(C)CC[C@H](OC(=O)CNCCCCCCN)C(C)(C)[C@@H]5CC[C@]43C)[C@@H]2C1`, the IC50 stood at 0.91 µmol in the assay on DLD-1; 1.12 µmol in assay [1]; 1.59 µmol in [2]; 1.17 µmol in the assay with HCT-116; 1.59 µmol in the assay with A549; 0.59 µmol in the assay with HT-29. Further, the IC50 was 1.61 µmol in the assay with SW-1736; 1.17 µmol with MCF7; 1.68 µmol in the assay with 8505C; 1.78 µmol with FaDu; 1.09 µmol in [6]; 2.25 µmol with SW480. Moreover, the IC50 is 0.62 µmol in the assay on HCT-8 and 1.36 µmol in the assay with A2780 [8]. The result with A2780 [3], with A-431 [4], in the assay on A2780 [5] and in the assay with A-431 [7] was Active.

Regarding `COC(=O)[C@@]1(C)CC[C@]2(C)CC[C@]3(C)C(=CC(=O)[C@@H]4[C@@]5(C)CC[C@H](OC(=O)CCl)C(C)(C)[C@@H]5CC[C@]43C)[C@@H]2C1`, the IC50 was 6.13 µmol in the assay with DLD-1; 6.19 µmol in [1]; 14.55 µmol in assay [2]; 5.13 µmol with HCT-116; 8.39 µmol in the assay on A549; 5.34 µmol in the assay with HT-29. In addition, the IC50 came out at 3.14 µmol in the assay with SW-1736; 6.69 µmol in the assay with MCF7; 15.86 µmol in the assay with 8505C; 12.44 µmol in the assay with FaDu; 5.24 µmol in assay [6]; 8.92 µmol with SW480. Besides, the IC50 is 3.97 µmol in the assay on HCT-8 and 6.01 µmol in the assay with A2780 [8].

For the molecule `COC(=O)[C@@]1(C)CC[C@]2(C)CC[C@]3(C)C(=CC(=O)[C@@H]4[C@@]5(C)CC[C@H](OC(=O)CNCCCCCCCCCCN)C(C)(C)[C@@H]5CC[C@]43C)[C@@H]2C1`, the IC50 with DLD-1 stood at 5.53 µmol; in [1], 5.48 µmol; in assay [2], 6.93 µmol; in the assay with HCT-116, 3.86 µmol; in the assay with A549, 5.16 µmol; in the assay with HT-29, 2.73 µmol. Moreover, the IC50 in the assay on SW-1736 worked out at 3.73 µmol; in the assay on MCF7, 2.68 µmol; in the assay with 8505C, 7.6 µmol; in the assay on FaDu it was 5.65 µmol; in assay [6], 4.33 µmol; in the assay with SW480, 4.73 µmol. Moreover, the IC50 stood at 4.07 µmol in the assay with HCT-8 and 3.63 µmol in the assay on A2780 [8].
